Data published in patent publication US6753348B2, “BTK inhibitors and methods for their identification and use” (Parker Hughes Institute, priority 1998, dated 2004).

Columns and labels:
JAK2 = test: Tyrosine kinase assay JAK2 as named in text; format: biochemical; settings: concentrations as high as 100 μg/ml (~278 μM)
[1] = system: OVA-sensitized and challenged mice; test: Airway responsiveness to methacholine in mouse model of allergic asthma; format: in vivo; settings: ovalbumin sensitized and challenged, N = 5-6 mice
Protocol: FIG. 28: Inhibition of airway hyperresponsiveness by LFM-A8 in mice. Mice were sensitized with ovalbumin (OVA) on days 0 and 14 intraperitoneally. On days 20, 21 and 23, mice were challenged for 15 min with 2% OVA via airways using a untrasonic nebulizer. After 24 h of the last OVA challenge airway responsiveness to increasing concentrations of methacholine was measured. To study the effect of LFM-A8 on airway hyperresponsiveness, mice were injected intraperitoneally with indicated concentrations of LFM-A8 or vehicle on day 20, 21, and 23 1 h prior and 2 h post OVA challenge and airway responsiveness to increasing concentrations of methacholine was measured. The data points represent the mean±SEM values (N=5-6 mice).
Mouse Model of Allergic Asthma. BALB/c mice were injected intraperitoneally with 20 μg of ovalbumin (OVA) in alum on day 0, and 14. On days 21, 22 and 23 the mice were challenged for 15 min with 2% OVA via their airways by ultrasonic nebulization (Takeda, K., et al., (1997) J Exp Med, 186, 449-454). In order to study the effect of LFM-A8 on allergic asthma, mice were treated with LFM-A8 or vehicle 2 h prior to OVA challenge on day 21, 22 and 23. Mice were assessed for “airway responsiveness” on day 24, as previously reported (Takeda, K., et al., (1997) J Exp Med, 186, 449-454; Hamelmann, E., et al., (1997) Am J Respir Crit Care Med, 156, 766-775) and described below.
Determination of Airway Responsiveness. Airway responsiveness was measured in unrestrained mice by noninvasive whole body plethysmography using a BUXCO BioSystem plethysmography instrument (BUXCO, Trou, N.Y.) (Hamelmann, E., et al., (1997) Am J Respir Crit Care Med, 156, 766-775). The chamber pressure was measured with a transducer connected to a preamplifier module and analyzed by system XA software) (Hamelmann, E., et al., (1997) Am J Respir Crit Care Med, 156, 766-775). The chamber pressure was used as a measure of the difference between thoracic volume expansion or contraction and air volume removed or added to the chamber during breathing. The differential of this function with respect to time produced a pseudo-flow value that is proportionate to the difference between the rate of the thoracic volume expansion and nasal air flow. The pulmonary airflow obstruction assessed by measuring “Enhanced Pause (Penh)” using the following formula according to the manufacturer's recommendations: Penh=PEP/PIP×Pause. […] In order to measure the methacholine responses, mice were placed in the chamber and baseline readings were taken and averaged for 3 min. Mice were nebulized with saline or methacholine at increasing doses (1-100 mg/ml) for 3 min and the Penh readings were taken and averaged for 3 min after each nebulization. […]

[2] = system: OVA-sensitized and challenged mice; test: Eosinophil infiltration in bronchoalveolar lavage of OVA challenged mice; format: in vivo, mouse; settings: ovalbumin sensitized and challenged mice, pretreatment
From the text: FIG. 29: Inhibition of eosinophil infiltration in bronchoalveolar lavage of OVA challenged mice by LFM-A8. The lungs of the mice were lavaged after methacholine challenge and eosinophil numbers were counted. The results of eosinophils are expressed as percent of total cell counts. The data points represent the mean±SEM values obtained from 5-6 mice. *P<0.05 compared to vehicle-treated control, as determined by Student's t test.
Assessment of Eosinophil Infiltration. After airway responsiveness measurements, lungs were lavaged thoroughly with 1 ml saline. The lavage fluid was centrifuged and the supernatant was removed. The cell pellet was resuspended in saline containing 0.1% BSA to give a final cell concentration of 0.1×10^6/ml. Cytospin smears made from the cell suspension were stained with Wright-Giemsa and the number of eosinophils were counted.

melting point | Structure (SMILES) | effect on enzymatic activity of JAK2 (JAK2) | Requirement of Methacholine for an Increase in Penh of 100% ([1]; 15 mg/Kg intraperitoneally) | Requirement of Methacholine for an Increase in Penh of 200% ([1]; 15 mg/Kg intraperitoneally) | Requirement of Methacholine for an Increase in Penh of 100% ([1]; 50 mg/Kg intraperitoneally) | Requirement of Methacholine for an Increase in Penh of 200% ([1]; 50 mg/Kg intraperitoneally) | reduction of numbers of eosinophils in BAL fluid [2]
– | C/C(O)=C(\C#N)C(=O)Nc1cc(Br)ccc1Br [LFM-A13, α-Cyano-β-hydroxy-β-methyl-N-(2,5-dibromophenyl)-propenamide] | did not affect the enzymatic activity | – | – | – | – | –
182 to 184 °C | CC(O)=C(C#N)C(=O)Nc1cccc(C(F)(F)F)c1 [LFM-A8, α-Cyano-β-hydroxy-β-methyl-N-[3-(trifluoromethyl)phenyl]-propenamide] | – | 36.8 mg/mL | 82 mg/mL | 67.5 mg/mL | 129 mg/mL | 80%
